Experimental data published in ChEMBL document CHEMBL3621089, “Fluorophore-tagged pharmacophores for antitumor cytotoxicity: Modified chiral lipidic dialkynylcarbinols for cell imaging” (Bioorg Med Chem Lett, 2015).

Key:
HCT-116 [1] = experiment: Drug uptake in human HCT116 cells at 1 uM after 30 mins by confocal microscopy; type: ADME, cell-based; settings: hct-116, 0.5 h
HCT-116 [2] = experiment: Cytotoxicity against human HCT116 cells assessed as live cells after 48 to 72 hrs by MTT assay; type: functional, cell-based
HeLa = experiment: Drug uptake in human HeLa cells at 1 uM after 30 mins using Nile Red by confocal microscopy; type: ADME, cell-based; settings: 0.5 h
HCT-116 [3] = experiment: Cytotoxicity against human HCT116 cells; type: functional, cell-based

Compound | Drug uptake (HCT-116 [1]) | Drug uptake (HeLa) | IC50 (HCT-116 [2]) | IC50 (HCT-116 [3])
C#CCCCCCCCCCCC#C[C@@H](O)C#C |  |  | 0.37 µM | 
C#C[C@@H](O)/C=C/CCCCCCCCCCCCCCC |  |  | 0.09 µM | 0.06 µM
C#C[C@H](O)C#CCCCCCCCCCCc1cn(CCCCc2ccc3ccc4cccc5ccc2c3c45)nn1 |  |  | 0.9 µM | 

Now from value to compound, other results behind:

Drug uptake (HCT-116 [1]) | Drug uptake (HeLa) | Compound | IC50 (HCT-116 [2]) | IC50 (HCT-116 [3])
Active |  | C#C[C@H](O)C#CCCCCCCCCCCc1cn(-c2cc3ccc(O)cc3oc2=O)nn1 | 3 µM | 
Active | Active | C#C[C@H](O)C#CCCCCCCCCCCc1cn(CC2=C3C(C)=CC(C)=[N+]3[B-](F)(F)n3c(C)cc(C)c32)nn1 | 10 µM | 
Active |  | C#C[C@H](O)C#CCCCCCCCCCCc1cn(CCCNc2ccc([N+](=O)[O-])c3nonc23)nn1 | 1.1 µM | 
